Data from ChEMBL document CHEMBL5505983, “Design, synthesis, and molecular modeling studies of novel 2-quinolone-1,2,3-triazole-α-aminophosphonates hybrids as dual antiviral and antibacterial agents” (Eur J Med Chem, 2024).
In brackets after ≈: the same amount, converted by molar mass.

How the values were obtained:
Staphylococcus aureus [1] = test: Ratio of MBC to MIC for Staphylococcus aureus CIP 54127; type: functional
Enterococcus faecalis [2] = test: Bactericidal activity against Enterococcus faecalis; type: functional
Yellow fever virus = test: Antiviral activity against Yellow fever virus infected in human Huh-7 cells assessed as inhibition of cytopathic effect by microscopy based analysis; type: functional, organism-based
[3] = Cytotoxicity against African green monkey Vero E6 cells; type: toxicity, cell-based, Vero C1008; details: chlorocebus sabaeus
[4] = Selectivity index, ratio of CC50 for African green monkey Vero A cells to IC50 for CHIKV infected in African green monkey Vero A cells; type: toxicity; details: read-out: Ratio CC50/IC50
Human rhinovirus sp. [5] = test: Antiviral activity against Human rhinovirus A2 infected in human HeLa-RH cells assessed as inhibition of cytopathic effect by microscopy based analysis; type: functional, organism-based
Enterococcus faecalis [6] = test: Ratio of MBC to MIC for Enterococcus faecalis; type: functional
Pseudomonas aeruginosa [7] = test: Antibacterial activity against Pseudomonas aeruginosa CIP A22 assessed as reduction in bacterial growth by micro-broth dilution method; type: functional
Escherichia coli [8] = test: Bactericidal activity against Escherichia coli CIP 53154; type: functional
Pseudomonas aeruginosa [9] = test: Ratio of MBC to MIC for Pseudomonas aeruginosa CIP A22; type: functional
Human rhinovirus sp. [10] = test: Antiviral activity against Human rhinovirus B14 infected in human HeLa-RH cells assessed as inhibition of cytopathic effect by microscopy based analysis; type: functional, organism-based
Chikungunya virus = test: Antiviral activity against CHIKV infected in African green monkey Vero A cells assessed as inhibition of cytopathic effect by microscopy based analysis; type: functional, organism-based
[11] = Cytotoxicity against African green monkey Vero A cells; type: toxicity, cell-based; details: chlorocebus sabaeus
Escherichia coli [12] = test: Ratio of MBC to MIC for Escherichia coli CIP 53154; type: functional
Enterococcus faecalis [13] = test: Antibacterial activity against Enterococcus faecalis assessed as reduction in bacterial growth by micro-broth dilution method; type: functional
[14] = Cytotoxicity against human RD cells; type: toxicity, cell-based
Staphylococcus aureus [15] = test: Antibacterial activity against Staphylococcus aureus CIP 54127 assessed as reduction in bacterial growth by micro-broth dilution method; type: functional
Escherichia coli [16] = test: Antibacterial activity against Escherichia coli CIP 53154 assessed as reduction in bacterial growth by micro-broth dilution method; type: functional
[17] = Selectivity index, ratio of CC50 for human HeLa-RH cells to IC50 for Human rhinovirus B14 infected in human HeLa-RH cells; type: toxicity, cell-based; details: read-out: Ratio CC50/IC50
Staphylococcus aureus [18] = test: Bactericidal activity against Staphylococcus aureus CIP 54127; type: functional
Zika virus = test: Antiviral activity against Zika virus infected in african green monkey Vero E6 cells assessed as inhibition of cytopathic effect by microscopy based analysis; type: functional, organism-based; details: Vero C1008
Enterovirus A71 = test: Antiviral activity against human EV71 infected in human RD cells assessed as inhibition of cytopathic effect by microscopy based analysis; type: functional, organism-based; details: Enterovirus A
[19] = Cytotoxicity against human Huh-7 cells; type: toxicity, cell-based
[20] = Cytotoxicity against human HeLa-RH cells; type: toxicity, cell-based
Pseudomonas aeruginosa [21] = test: Bactericidal activity against Pseudomonas aeruginosa CIP A22; type: functional
[22] = Selectivity index, ratio of CC50 for human RD cells to IC50 for human EV71 infected in human RD cells; type: toxicity, cell-based; details: read-out: Ratio CC50/IC50
[23] = Selectivity index, ratio of CC50 for human Huh-7 cells to IC50 for Yellow fever virus infected in human Huh-7 cells; type: toxicity, cell-based; details: read-out: Ratio CC50/IC50
[24] = Selectivity index, ratio of CC50 for African green monkey Vero E6 cells to IC50 for Zika virus infected in african green monkey Vero E6 cells; type: toxicity; details: read-out: Ratio CC50/IC50

SMILES	Ratio (Staphylococcus aureus [1])	MBC (Enterococcus faecalis [2])	IC50 (Yellow fever virus)	CC50 [3]	selectivity ratio [4]	IC50 (Human rhinovirus sp. [5])	Ratio (Enterococcus faecalis [6])	MIC (Pseudomonas aeruginosa [7])	MBC (Escherichia coli [8])	Ratio (Pseudomonas aeruginosa [9])	IC50 (Human rhinovirus sp. [10])	IC50 (Chikungunya virus)	CC50 [11]	Ratio (Escherichia coli [12])	MIC (Enterococcus faecalis [13])	CC50 [14]	MIC (Staphylococcus aureus [15])	IC50 (Zika virus)	IC50 (Enterovirus A71)	CC50 [19]	also measured
CCOP(=O)(OCC)C(Nc1ccccc1)c1cc(Cn2cc(Cn3c(=O)cc(C)c4cc(Br)ccc43)nn2)ccc1O (stereo not drawn)	1	120 µM (≈ 80 µg/mL)	> 100 µM	> 100 µM	> 2.5	> 1230 nM	2	3750 µM (≈ 2500 µg/mL)	1880 µM (≈ 1250 µg/mL)	1.99	41.1 µM	40 µM	> 100 µM	1.98	60 µM (≈ 40 µg/mL)	> 100 µM	240 µM (≈ 160 µg/mL)	> 100 µM	> 100 µM	52 µM	MIC (Escherichia coli [16]): 950 µM (≈ 633 µg/mL); selectivity ratio [17]: > 2.43; MBC (Staphylococcus aureus [18]): 240 µM (≈ 160 µg/mL); CC50 [20]: > 100 µM; MBC (Pseudomonas aeruginosa [21]): 3750 µM (≈ 2500 µg/mL)
Cc1cc(=O)n(Cc2cn(Cc3ccc(O)c(C=O)c3)nn2)c2ccc(Br)cc12	1	340 µM (≈ 154 µg/mL)	> 100 µM	52.7 µM	> 1.02	> 1230 nM	1	2760 µM (≈ 1250 µg/mL)	11000 µM (≈ 5000 µg/mL)	1	> 100 µM	98.5 µM	> 100 µM	2	340 µM (≈ 154 µg/mL)	44.1 µM	11000 µM (≈ 5000 µg/mL)	> 100 µM	33.3 µM	29.6 µM	selectivity ratio [22]: 1.33; MIC (Escherichia coli [16]): 5520 µM (≈ 2500 µg/mL); MBC (Staphylococcus aureus [18]): 11000 µM (≈ 5000 µg/mL); CC50 [20]: 8.61 µM; MBC (Pseudomonas aeruginosa [21]): 2760 µM (≈ 1250 µg/mL)
CCOP(=O)(OCC)C(Nc1ccccc1Br)c1cc(Cn2cc(Cn3c(=O)cc(C)c4ccccc43)nn2)ccc1O (stereo not drawn)	1	60 µM (≈ 40 µg/mL)	9.94 µM	> 100 µM	2.49	> 1230 nM	1	3750 µM (≈ 2500 µg/mL)	470 µM (≈ 313 µg/mL)	1.99	> 100 µM	9.4 µM	23.4 µM	1	60 µM (≈ 40 µg/mL)	70.2 µM	120 µM (≈ 80 µg/mL)	> 100 µM	> 100 µM	30.1 µM	MIC (Escherichia coli [16]): 470 µM (≈ 313 µg/mL); selectivity ratio [23]: 3.03; MBC (Staphylococcus aureus [18]): 120 µM (≈ 80 µg/mL); CC50 [20]: 45.7 µM; MBC (Pseudomonas aeruginosa [21]): 3750 µM (≈ 2500 µg/mL)
CCOP(=O)(OCC)C(Nc1ccccc1Br)c1cc(Cn2cc(Cn3c(=O)cc(C)c4cc(Br)ccc43)nn2)ccc1O (stereo not drawn)	2	50 µM (≈ 37.3 µg/mL)	10.4 µM	> 100 µM	0.18	> 410 nM	1	420 µM (≈ 313 µg/mL)	850 µM (≈ 634 µg/mL)	1	> 100 µM	57.3 µM	10.1 µM	2.02	50 µM (≈ 37.3 µg/mL)	> 100 µM	210 µM (≈ 157 µg/mL)	> 100 µM	> 100 µM	27.9 µM	MIC (Escherichia coli [16]): 420 µM (≈ 313 µg/mL); selectivity ratio [23]: 2.68; MBC (Staphylococcus aureus [18]): 420 µM (≈ 313 µg/mL); CC50 [20]: 18.4 µM; MBC (Pseudomonas aeruginosa [21]): 420 µM (≈ 313 µg/mL)
CCOC(=O)/C=C/[C@H](C[C@@H]1CCNC1=O)NC(=O)[C@@H](CC(=O)[C@@H](NC(=O)c1cc(C)on1)C(C)C)Cc1ccc(F)cc1 [RUPINTRIVIR]																> 100 µM			1.87 µM		selectivity ratio [22]: > 53.5
C[C@@]1(O)[C@H](O)[C@@H](CO)O[C@H]1n1ccc2c(N)ncnc21 [BETA-2'-C-METHYL-7-DEAZA-ADENOSINE]			16.3 µM	> 100 µM														20 µM		50 µM	selectivity ratio [24]: > 5; selectivity ratio [23]: 3.07
CCOP(=O)(OCC)C(Nc1ccc(F)cc1)c1cc(Cn2cc(Cn3c(=O)cc(C)c4cc(Br)ccc43)nn2)ccc1O (stereo not drawn)	1	60 µM (≈ 41.1 µg/mL)	> 100 µM	> 33.3 µM	3.79	> 410 nM	1	1830 µM (≈ 1250 µg/mL)	920 µM (≈ 630 µg/mL)	1	> 33.3 µM	6.8 µM	25.8 µM	1	60 µM (≈ 41.1 µg/mL)	> 100 µM	450 µM (≈ 308 µg/mL)	> 100 µM	> 100 µM	22.2 µM	MIC (Escherichia coli [16]): 920 µM (≈ 630 µg/mL); MBC (Staphylococcus aureus [18]): 450 µM (≈ 308 µg/mL); CC50 [20]: 20.9 µM; MBC (Pseudomonas aeruginosa [21]): 1830 µM (≈ 1250 µg/mL)
